For data set [1], the system named is SSTR2-expressing IMR-32 cells. Put plainly: Cellular uptake / receptor-mediated binding and octreotide blocking in IMR-32 cells. Format: cell-based. How it is done: The cellular uptake of compound 7 was compared to another dual-labeled TOC agent, ^64Cu-DA(NIR)-TOC, which was synthesized by sequential N-terminal functionalization of resin-bound TOC with an azide-containing amino acid and DOTA-NHS, in IMR-32 neuroblastoma cells. Agents (30 nM, 1-2 μCi) were added to vials containing 4 million cells and incubated at 4° C. for 1 hr. […] After washing twice with PBS, the cells were collected and bound radioactivity was measured by a γ counter.

Data set [2] in a line: Biodistribution in AR42J xenografts. It counts as in vivo, mice. The following applies: mouse, all tissues other than tumor and kidneys, read-out: uptake in all locations other than tumor and kidneys.
The subject of data set [3] is AR42J xenografts. Put plainly: Biodistribution in AR42J xenografts. It counts as in vivo, mice.
The test system of data set [4] is AR42J tumor. Put plainly: PET/CT imaging of AR42J tumor-bearing mice. Format: in vivo. An excerpt: PET/CT images (FIG. 6) were taken of AR42J tumor-bearing mice administered ^68Ga-DOTA-TOC (left) and ^68Ga-MMC(5-FU)-TOC (right).

Each structure is given as a SMILES string.

As for `C[C@@H](O)[C@@H]1NC(=O)[C@H](CCCCN)NC(=O)[C@@H](Cc2c[nH]c3ccccc23)NC(=O)[C@H](Cc2ccc(O)cc2)NC(=O)[C@@H](NC(=O)[C@@H](Cc2ccccc2)NC(=O)CN2CCN(CC(=O)O)CCN(C(=O)Cn3cc(F)c(=O)[nH]c3=O)CCN(CC(=O)O)CC2)CSSC[C@@H](C(=O)N[C@H](CO)[C@@H](C)O)NC1=O` [^68Ga-MMC(5-FU)-TOC, metal not drawn], the “binding to IMR-32 cells” value in data set [1] was “good binding”. Also, the “reduction in binding on blocking with octreotide” value in data set [1] (10-fold excess of octreotide) was found to be 81.2%; in data set [1] (200-fold excess of octreotide), 94.9%. The tissue uptake in data set [2] is < 5 %ID/g. In data set [3], the “location of the majority of the injected dose” value was “either the tumor or kidneys”. Also, the “localization in PET/CT images” value in data set [4] is “primarily in the tumor, the kidneys, and the bladder”.

For the origin of these results see patent US10441607B1, “Multifunctional linker technology containing an N4 group” (priority 2016, dated 2019).
